Here are results for 1 compound from US20250235499A1, “ANTI-OVARIAN CANCER PHARMACEUTICAL COMPOSITION AND ACTION TARGET THEREOF” (Zhejiang Chinese Medical University, priority 2024, published 2025).

Test [1] concerns MCM2, CDK4, Cyclin D1, P21. In words: Western Blot of tumor body cyclin in tumor bearing nude mice. In kind it is in vivo, BALB/c nude mice. Conditions: nude mouse tumor body, compared to the Control group. The source says:
The expression of nude mice tumor body cyclin and EMT related proteins in tumor bearing nude mice after intervention with DDP, CA, BDMC, and combined administration was shown in FIG. 29. In the figure, 1 represented the Control group; 2 represented the DDP group; 3 represented the CA group; 4 represented the BDMC group; and 5 represented the CA+BDMC group.
Background: A western blot detects proteins with antibodies after separation by electrophoresis.

In a further test the test system is Hey ovarian cancer cell. In words: Tumor bearing nude mouse model (tumor volume, tumor inhibition rate, body weight). The note with it: intraperitoneal, 15 days; DDP 3 mg/kg, CA 80 mg/kg, BDMC 5 mg/kg; compared to the Control group, P<0.01. In kind it is in vivo, BALB/c nude mice. On the procedure:
Newly housed BALB/c nude mice were placed in an SPF grade feeding room laminar flow rack for adaptive feeding for one week, and the experimental animal status was adjusted. A Hey ovarian cancer cell was cultivated to the logarithmic growth stage, and the original culture medium was discarded. The Hey ovarian cancer cell was washed with PBS buffer, added with 0.1% trypsin digestion for digestion, added with the corresponding culture medium to terminate digestion, centrifuged at 1000 rpm for 3 minutes, and added with PBS buffer to prepare a cell suspension. The cell was counted using a hemocytometer, and the cell concentration was quantified to 5×10^7 cells/mL. After grasping and fixing the nude mouse with the left hand, and the skin at a needle inserting site on the right forelimb axilla of the nude mouse was disinfected with a 75% alcohol cotton ball. A disposable 1 mL syringe was used to inject approximately 100 μL of cell suspension subcutaneously into the posterior axilla of the right forelimb in an oblique stabbing inserting needle mode, so that each nude mouse was injected with approximately 5×10^6 cells. After vaccination, the needle inserting site was gently pressed with a cotton ball to prevent the cell suspension from leaking from a needle hole. The growth status of tumors at the vaccination site of nude mice was observed daily. After about one week, if the tumors at the vaccination site were compacted and appeared light red in color, it could be considered as successful tumor growth. At this time, the nude mice were randomly divided into 5 groups, a Control group intraperitoneally injected with physiological saline for 1 day each time; a DDP group intraperitoneally injected with cisplatin, 3 mg/kg, 3 d/time; a CA group intraperitoneally injected with CA, 80 mg/kg, 1 d/time; a BDMC group intraperitoneally injected with BDMC, 5 mg/kg, 1 d/time; a CA+BDMC group intraperitoneally injected with CA 80 mg/kg+BDMC 5 mg/kg, 1 d/time, 8 animals per group. A tumor length (L) and a […] were measured with a vernier caliper every 3 days to calculate a tumor volume. After 15 days of administration, nude mice were euthanized by dislocation of cervical vertebra, and tumor tissue was dissected. The tumor weight was weighed to calculate the tumor inhibition rate. The tumor tissue was stored in two batches at −80° C. and fixed with 4% paraformaldehyde.

Regarding `N.N.[Cl][Pt][Cl]` [DDP, cisplatin, reference compound], the “expression of CDK4 protein (Western Blot)” value in test [1] is recorded as “significantly decreased”. In the test with Hey ovarian cancer cell, the tumor inhibition rate entry is given as “significantly increased” and the tumor volume size result is “significantly reduced”.
